Legend:
NCI-H522 = assay: Anticancer activity, SRB assay, non-small lung cell line NCI-H522; type: cell-based, human; details: Homo sapiens, NCI-H522; Non-small lung NCl-H522; 48 h continuous drug exposure; —^b means GI50 values not attained at the concentrations used; read-out: Growth Inhibition GI50
Experimental: (§1) Some of biological activity studies were carried out at the National Cancer Institute (NCI), Maryland, USA.
(§2) The compounds were evaluated for anticancer activity against sixty human cancer cells derived from nine cancer types (leukemia cell line, non-small-cell lung cell line, colon cell line, CNS cell line, melanoma cell line, ovarian cell line, prostate cell line, renal cell line and breast cancer cell line) as shown in Table 1. For each compound, dose response curves for each cell line were measured at a minimum of five concentrations at 10 fold dilutions. A protocol of 48 h continuous drug exposure was used and a sulforhodamine B (SRB) protein assay was used to estimate cell viability or growth.

[1] = test system: sixty human cancer cell lines derived from nine cancer types; assay: Anticancer activity against sixty human cancer cell lines; type: cell-based
Experimental: as §1, §2

[2] = test system: seven colon cancer cell line (COLO 205, HCC-2998, HCT-116, HCT-15, HT29, KM12 and SW-620); assay: Anticancer activity, SRB assay, colon panel; type: cell-based, human; details: for mean graph midpoint values (MG_MID) of log10 TGI (Log10TGI50) / mean graph midpoint values (MG_MID) of Log10LC50 / mean graph midpoint values (MG_MID) of Log10GI50: Colon; for mean graph midpoint values (MG_MID) of log10 TGI (Log10TGI50): log value of concentration of the compound resulting in total inhibition of net cell growth; for mean graph midpoint values (MG_MID) of Log10LC50: log value of the concentration of compounds leading to 50% net cell death; for mean graph midpoint values (MG_MID) of Log10GI50: log values of concentration in mol/L causing 50% inhibition of net cell growth; for GI50: Homo sapiens, seven colon cancer cell line, exposure period of at least 48 h, read-out: GI50 (range over the panel)
Experimental: as §1, §2

SK-MEL-5 = assay: Anticancer activity, SRB assay, melanoma cell line SK-MEL-5; type: cell-based; details: Homo sapiens; Melanoma SK-MEL-5; 48 h continuous drug exposure; read-out: Growth Inhibition GI50
Experimental: as §1, §2

[3] = test system: seven ovarian cancer cell lines (IGROV1, OVCAR-3, OVCAR-4, OVCAR-5, OVCAR-8, NCI/ADR-RES and SK-OV-3); assay: Anticancer activity, SRB assay, ovarian panel; type: cell-based, human; details: for GI50: Homo sapiens, seven ovarian cancer cell lines, exposure period of at least 48 h, read-out: GI50 (range over the panel); for mean graph midpoint values (MG_MID) of log10 TGI (Log10TGI50) / mean graph midpoint values (MG_MID) of Log10LC50 / mean graph midpoint values (MG_MID) of Log10GI50: Ovarian; for mean graph midpoint values (MG_MID) of log10 TGI (Log10TGI50): log value of concentration of the compound resulting in total inhibition of net cell growth; for mean graph midpoint values (MG_MID) of Log10LC50: log value of the concentration of compounds leading to 50% net cell death; for mean graph midpoint values (MG_MID) of Log10GI50: log values of concentration in mol/L causing 50% inhibition of net cell growth
Experimental: as §1, §2

786-0 = assay: Anticancer activity, SRB assay, renal cell line 786-0; type: cell-based, human; details: Homo sapiens; Renal 786-0; 48 h continuous drug exposure; —^b means GI50 values not attained at the concentrations used; read-out: Growth Inhibition GI50
Experimental: as §1, §2

UO-31 = assay: Anticancer activity, SRB assay, renal cell line UO-31; type: cell-based, human; details: Homo sapiens; Renal UO-31; 48 h continuous drug exposure; —^b means GI50 values not attained at the concentrations used; read-out: Growth Inhibition GI50
Experimental: as §1, §2

U251 = assay: Anticancer activity, SRB assay, CNS cell line U251; type: cell-based; details: Homo sapiens, U-251, 48 h continuous drug exposure, read-out: Growth Inhibition GI50
Experimental: as §1, §2

HT29 = assay: Anticancer activity, SRB assay, colon cell line HT29; type: cell-based; details: Homo sapiens, HT-29, 48 h continuous drug exposure, read-out: Growth Inhibition GI50
Experimental: as §1, §2

T-47D = assay: Anticancer activity, SRB assay, breast cell line T-47D; type: cell-based, human; details: Homo sapiens, T47D; Breast T-47D; 48 h continuous drug exposure; —^b means GI50 values not attained at the concentrations used; read-out: Growth Inhibition GI50
Experimental: as §1, §2

HCT-15 = assay: Anticancer activity, SRB assay, colon cell line HCT-15; type: cell-based; details: Homo sapiens; Colon HCT-15; 48 h continuous drug exposure; read-out: Growth Inhibition GI50
Experimental: as §1, §2

NCI-H322M = assay: Anticancer activity, SRB assay, non-small lung cell line NCI-H322M; type: cell-based, human; details: Homo sapiens, NCI-H322M; Non-small lung NCl-H322M; 48 h continuous drug exposure; —^b means GI50 values not attained at the concentrations used; read-out: Growth Inhibition GI50
Experimental: as §1, §2

UACC-257 = assay: Anticancer activity, SRB assay, melanoma cell line UACC-257; type: cell-based; details: Homo sapiens; Melanoma UACC-257; 48 h continuous drug exposure; read-out: Growth Inhibition GI50
Experimental: as §1, §2

NCI-H226 = assay: Anticancer activity, SRB assay, non-small lung cell line NCI-H226; type: cell-based, human; details: Homo sapiens, NCI-H226; Non-small lung NCl-H226; 48 h continuous drug exposure; —^b means GI50 values not attained at the concentrations used; read-out: Growth Inhibition GI50
Experimental: as §1, §2

MALME-3M = assay: Anticancer activity, SRB assay, melanoma cell line MALME-3M; type: cell-based; details: Homo sapiens; Melanoma MALME-3M; 48 h continuous drug exposure; read-out: Growth Inhibition GI50
Experimental: as §1, §2

[4] = test system: six CNS cancer cell line (SF-268, SF-295, SF-539, SNB-19, SNB-75 and U251); assay: Anticancer activity, SRB assay, CNS panel; type: cell-based, human; details: for mean graph midpoint values (MG_MID) of log10 TGI (Log10TGI50) / mean graph midpoint values (MG_MID) of Log10LC50 / mean graph midpoint values (MG_MID) of Log10GI50: CNS; for mean graph midpoint values (MG_MID) of log10 TGI (Log10TGI50): log value of concentration of the compound resulting in total inhibition of net cell growth; for mean graph midpoint values (MG_MID) of Log10LC50: log value of the concentration of compounds leading to 50% net cell death; for mean graph midpoint values (MG_MID) of Log10GI50: log values of concentration in mol/L causing 50% inhibition of net cell growth; for GI50: Homo sapiens, six CNS cancer cell line, exposure period of at least 48 h, read-out: GI50 (range over the panel)
Experimental: as §1, §2

[5] = test system: nine non-small cell lung cancer cell lines (A549/ATCC, EKVX, HOP-62, HOP-92, NCI-H226, NCI-H23, NCI-H322M, NCI-H460 and NCI-H522); assay: Anticancer activity, SRB assay, non-small cell lung panel; type: cell-based, human; details: Non-small cell lung; for mean graph midpoint values (MG_MID) of log10 TGI (Log10TGI50): log value of concentration of the compound resulting in total inhibition of net cell growth; for mean graph midpoint values (MG_MID) of Log10LC50: log value of the concentration of compounds leading to 50% net cell death; for mean graph midpoint values (MG_MID) of Log10GI50: log values of concentration in mol/L causing 50% inhibition of net cell growth
Experimental: as §1, §2

[6] = as above; type: cell-based, human; details: Homo sapiens; nine non-small cell lung cancer cell lines; exposure period of at least 48 h; read-out: GI50 (range over the panel)
Experimental: as §1, §2

HS 578T = assay: Anticancer activity, SRB assay, breast cell line HS 578T; type: cell-based, human; details: Homo sapiens; Breast HS 578T; 48 h continuous drug exposure; —^b means GI50 values not attained at the concentrations used; read-out: Growth Inhibition GI50
Experimental: as §1, §2

LOX IMVI = assay: Anticancer activity, SRB assay, melanoma cell line LOX IMVI; type: cell-based; details: Homo sapiens, 48 h continuous drug exposure, read-out: Growth Inhibition GI50
Experimental: as §1, §2

RPMI-8226 = assay: Anticancer activity, SRB assay, leukemia cell line RPMI-8226; type: cell-based; details: Homo sapiens; Leukemia RPMI-8226; 48 h continuous drug exposure; read-out: Growth Inhibition GI50
Experimental: as §1, §2

SF-268 = assay: Anticancer activity, SRB assay, CNS cell line SF-268; type: cell-based, human; details: Homo sapiens; CNS SF-268; 48 h continuous drug exposure; —^b means GI50 values not attained at the concentrations used; read-out: Growth Inhibition GI50
Experimental: as §1, §2

PC-3 = assay: Anticancer activity, SRB assay, prostate cell line PC-3; type: cell-based, human; details: Homo sapiens; Prostate PC-3; 48 h continuous drug exposure; —^b means GI50 values not attained at the concentrations used; read-out: Growth Inhibition GI50
Experimental: as §1, §2

MDA-MB-435 = assay: Anticancer activity, SRB assay, melanoma cell line MDA-MB-435; type: cell-based, human; details: Homo sapiens; Melanoma MDA-MB-435; 48 h continuous drug exposure; —^b means GI50 values not attained at the concentrations used; read-out: Growth Inhibition GI50
Experimental: as §1, §2

SNB-19 = assay: Anticancer activity, SRB assay, CNS cell line SNB-19; type: cell-based, human; details: Homo sapiens; CNS SNB-19; 48 h continuous drug exposure; —^b means GI50 values not attained at the concentrations used; read-out: Growth Inhibition GI50
Experimental: as §1, §2

SR = assay: Anticancer activity, SRB assay, leukemia cell line SR; type: cell-based; details: Homo sapiens, 48 h continuous drug exposure, read-out: Growth Inhibition GI50
Experimental: as §1, §2

| Structure (SMILES) | GI50 (NCI-H522) [nM] | in vitro anticancer activity (in words) [1] | mean graph midpoint values (MG_MID) of log10 TGI (Log10TGI50) [2] | mean graph midpoint values (MG_MID) of Log10LC50 [2] | mean graph midpoint values (MG_MID) of Log10GI50 [2] [mol/L] | GI50 [2] [nM] | GI50 (SK-MEL-5) [nM] | GI50 [3] [nM] | mean graph midpoint values (MG_MID) of log10 TGI (Log10TGI50) [3] | mean graph midpoint values (MG_MID) of Log10LC50 [3] | mean graph midpoint values (MG_MID) of Log10GI50 [3] [mol/L] | GI50 (786-0) [nM] | GI50 (UO-31) [nM] | GI50 (U251) [nM] | GI50 (HT29) [nM] | GI50 (T-47D) [nM] | GI50 (HCT-15) [nM] | GI50 (NCI-H322M) [nM] | GI50 (UACC-257) [nM] | GI50 (NCI-H226) [nM] | further results |
| --- | --- | --- | --- | --- | --- | --- | --- | --- | --- | --- | --- | --- | --- | --- | --- | --- | --- | --- | --- | --- | --- |
| Cc1cc(C#Cc2ccccc2)ccc1-n1c(/C=C/c2ccc(O)cc2)nc2ccccc2c1=O [Compound 4b, (E)-2-(4-Hydroxystyryl)-3-(2-methyl-4-(phenylethynyl)phenyl)quinazolin-4(3H)-one] | 2260 | exhibiting an in vitro anticancer activity | −4.83 | −4.15 | −5.55 | 1990 to 4080 | 1770 | 3090 to 20600 | −4.23 | >−4.00 | −5.33 | 3650 | 2060 | 4330 | 3330 | 2020 | 2500 | 2930 | 4180 | 3990 | GI50 (MALME-3M): 2120 nM; mean graph midpoint values (MG_MID) of log10 TGI (Log10TGI50) [4]: −4.21; mean graph midpoint values (MG_MID) of Log10LC50 [4]: >−4.00; mean graph midpoint values (MG_MID) of Log10GI50 [4]: −5.35 mol/L; GI50 [4]: 2850 to 6910 nM; mean graph midpoint values (MG_MID) of log10 TGI (Log10TGI50) [5]: −4.32; mean graph midpoint values (MG_MID) of Log10LC50 [5]: −4.04; mean graph midpoint values (MG_MID) of Log10GI50 [5]: −5.47 mol/L; GI50 [6]: 2220 to 13100 nM; GI50 (HS 578T): 2480 nM; GI50 (LOX IMVI): 2780 nM; GI50 (RPMI-8226): 2330 nM; GI50 (SF-268): 4560 nM; GI50 (PC-3): 3240 nM; GI50 (MDA-MB-435): 2820 nM; GI50 (SNB-19): 6910 nM; GI50 (SR): 2450 nM |
| Cc1cc(C#Cc2ccccc2)ccc1-n1c(/C=C/c2cc(O)ccc2O)nc2ccccc2c1=O [Compound 4c, (E)-2-(2,5-Dihydroxystyryl)-3-(2-methyl-4-(phenylethynyl)phenyl)quinazolin-4(3H)-one] | 1290 | exhibiting an in vitro anticancer activity | −5.53 | −5.23 | −5.83 | 1030 to 1950 | 1350 | 1390 to 2450 | −5.31 | −4.61 | −5.72 | 1740 | 1160 | 1450 | 1950 | 1140 | 1030 | 1620 | 1560 | 1520 | GI50 (MALME-3M): 1500 nM; mean graph midpoint values (MG_MID) of log10 TGI (Log10TGI50) [4]: −5.50; mean graph midpoint values (MG_MID) of Log10LC50 [4]: −5.15; mean graph midpoint values (MG_MID) of Log10GI50 [4]: −5.85 mol/L; GI50 [4]: 1300 to 1620 nM; mean graph midpoint values (MG_MID) of log10 TGI (Log10TGI50) [5]: −5.44; mean graph midpoint values (MG_MID) of Log10LC50 [5]: −4.91; mean graph midpoint values (MG_MID) of Log10GI50 [5]: −5.83 mol/L; GI50 [6]: 1240 to 1710 nM; GI50 (HS 578T): 1540 nM; GI50 (LOX IMVI): 1370 nM; GI50 (RPMI-8226): 1260 nM; GI50 (SF-268): 1310 nM; GI50 (PC-3): 2190 nM; GI50 (MDA-MB-435): 1670 nM; GI50 (SNB-19): 1620 nM; GI50 (SR): 1100 nM |

— US8680272B2, “3-arylethynyl substituted quinazolinone compounds” (Council of Scientific & Industrial Research, priority 2011, dated 2014)
